One experiment has as its system IκBα and ERK1/2. As to conditions: LPS-induced; ref [22]; cited from earlier work. From the text:
(§1) NF-κB is one of the most important inflammatory switches that comprise a series of transcription factors that regulate the expressions of various proinflammatory cytokines (IL-1, IL-6, IL-8 and TNF-α). NF-κB activation is depended on the degradation and phosphorylation of IκBα [12].

For experiment [1], the system named is LPS-induced cytokine release. The conditions noted are these: by decreasing both IκBα and ERK1/2 phosphorylation; ref [22]; cited from earlier work.
For the next experiment, the system named is ODN2006. In words: IAsys biosensor binding to immobilized biotinylated ODN2006. The conditions noted are these: IAsys Plus biosensor; peptide 50 μM. As for the experimental part: Figure 8 Synthetic peptide (SP) specifically binds ODN2006. (A) Binding curves generated by the IAsys biosensor. Biotinylated ODN2006 was immobilized on the surface of a streptavidin-coated cuvette. A series of concentration of SP (3.1, 6.3, 12.5, 25 or 50 μM) or unrelated peptide (URP) (50 μM) were added separately into the cuvette to generate the binding curves. Data were analyzed using FASTplot, and the dissociation equilibrium constant (KD) of SP was calculated using FASTfit; (B) Binding curves generated by the Biacore biosensor. Biotinylated ODN2006 was immobilized on a streptavidin-coated chip, and then a series of concentrations of SP (0.63, 1.25, 2.5, 5 or 10 μM) or URP (10 μM) were loaded separately to generate the binding curves. Data analysis and KD calculation were performed using the BIAevaluation software.
The affinity assay was firstly carried out using an IAsys Plus affinity biosensor (Thermo Labsystem, Altrincham, Cheshire, UK), according to our previous report. Biotinylated ODN2006 was immobilized on the surface of a streptavidin-coated cuvette according to the user manual. […] Binding curves were analyzed and visualized using FASTplot (Thermo), and the dissociation equilibrium constant (KD) of SP with ODN2006 was calculated using FASTfit (Thermo).

Another experiment relates to NF-κB p65 subunit. The experiment can be described thus: NF-κB activity assay, p65 subunit in nuclear extract of RAW264.7 cells (Trans^AM ELISA). The conditions noted are these: peptide alone 4.5 μM; 4 h; n = 3. It counts as cell-based. As for the experimental part: Figure 3 Synthetic peptide (SP) inhibited NF-κB activation induced by CpG oligodeoxynucleotides (CpG ODN) in RAW264.7 cells. RAW264.7 cells (5.0 × 10^6 cells) grown in six-well plates were treated with 1.5 μM of ODN2006 (A) or ODN107 (B) preincubated with SP (0, 0.5, 1.5, or 4.5 μM) or unrelated peptide (URP) (4.5 μM) at 37 °C for 15 min. After incubation for 4 h, the cells were collected to extract nuclear proteins. The p65 subunit was detected using enzyme-linked immunosorbent assay (ELISA) kits. Data from one of three independent experiments are shown (n = 3). “*”, p < 0.05 vs. ODN2006 or ODN107; “**”, p < 0.01 vs. ODN2006 or ODN107; “#”, p > 0.05 vs. ODN2006 or ODN107.
(§2) The RAW264.7 cell line was purchased from American Type Culture Collection (ATCC, Manassas, VA, USA). Cells were cultured in DMEM (high glucose) medium containing 10% FCS in a 37 °C humidified atmosphere with 5% CO2. Cells diluted with 0.4% trypan blue in phosphate-buffered saline (PBS, 0.1 mM, pH 7.2–7.4) were counted using a hemocytometer.
RAW264.7 cells (5.0 × 10^6 cells) were placed in six-well plates for 4 h, and the supernatants were then replaced with fresh medium containing 1.5 μM of ODN2006 or ODN107 that had been preincubated with SP (0, 0.5, 1.5, or 4.5 μM) or URP (4.5 μM) at 37 °C for 15 min. After incubation for 4 h, the cells were collected to extract nuclear proteins. Equal amounts of each sample were used to detect the DNA binding activity of the NF-κB p65 subunit using Trans^AM NF-κB ELISA kits (Active Motif), according to the manufacturer’s instructions.

The test system of experiment [2] is RAW264.7 cells. In words: FAM-2006 internalization within RAW264.7 cells, laser confocal scanning. It counts as cell-based. The conditions noted are these: peptide 4.5 μM preincubated with FAM-2006 1.5 μM; 30 min; n = 100. On the procedure:
Figure 5 Synthetic peptide (SP) inhibited ODN2006 internalization, as assessed using laser confocal scanning (Scale bar = 20 μm). RAW264.7 cells (1 × 10^6 cells) grown on 2-cm glass bottom dishes were treated with normal medium, 1.5 μM of FAM-labeled ODN2006 (FAM-2006) that had been preincubated with SP (0, 0.5, 1.5 or 4.5 μM) or unrelated peptide (URP; 4.5 μM) at 37 °C for 15 min. After treatment for 30 min, cells were washed with warm phosphate buffered saline (PBS) and fixed with 4% (m/v) paraformaldehyde, then stained with DAPI (4′,6-diamidino-2-phenylindole) (blue). The intracellular FAM-2006 (green) was observed using a laser confocal microscope (A); Mean fluorescence intensity (MFI) values (B) and the percentages of cells with FAM-2006 dots (green fluorescence) (C) were calculated by the ZENlite 2012 software (n = 100). “**”, p < 0.01; “#”, p > 0.05 vs. FAM-2006 alone.
The RAW264.7 cell line was purchased from American Type Culture Collection (ATCC, Manassas, VA, USA). Cells were cultured in DMEM (high glucose) medium containing 10% FCS in a 37 °C humidified atmosphere with 5% CO2. Cells diluted with 0.4% trypan blue in phosphate-buffered saline (PBS, 0.1 mM, pH 7.2–7.4) were counted using a hemocytometer. […]

In experiment [3] the test system is RAW264.7 cells. The experiment can be described thus: TNF-α and IL-6 release from RAW264.7 cells, both cytokines stated together (ELISA). It counts as cell-based, mouse. The conditions noted are these: peptide alone, without CpG ODN; 6 h. As for the experimental part:
Figure 1 Synthetic peptide (SP) decreased TNF-α and IL-6 release from RAW264.7 cells treated with CpG oligodeoxynucleotides (CpG ODN). RAW264.7 cells (4.0 × 10^5 cells) grown in 48-well plates were treated with 1.5 μM of ODN2006 or ODN107 preincubated with SP (0, 0.5, 1.5, or 4.5 μM) or unrelated peptide (URP) (4.5 μM) at 37 °C for 15 min. After incubation for 6 h, the supernatants were collected to detect TNF-α (A) and IL-6 (B) using enzyme-linked immunosorbent assay (ELISA) kits. Data from one of three independent experiments are shown (n = 4). “*”, p < 0.05 vs. ODN2006 or ODN107; “**”, p < 0.01 vs. ODN2006 or ODN107; “#”, p > 0.05 vs. ODN2006 or ODN107.
Experiments were performed as described in Figure 1. The concentrations of ODN2006, LPS, PAM3 and SP were 1.5 μM, 20 ng/mL, 5 μg/mL and 1.5 μM, respectively. Data from one of three independent experiments are shown (n = 3).
as §2
RAW264.7 cells (4.0 × 10^5 cells) were incubated in 48-well plates for 4 h, and supernatants were replaced with 0.4 mL of serum-free DMEM medium containing 1.5 μM of ODN2006 or ODN107, which had been preincubated with 0, 0.5, 1.5 or 4.5 μM of SP or 4.5 μM of URP at 37 °C for 15 min. After incubation for 6 h, the supernatants were collected to detect TNF-α and IL-6 concentrations using corresponding ELISA kits (eBioscience).
In general terms: An ELISA detects its analyte on a solid surface through an enzyme-linked reagent.

Experiment [4] deals with IκBα phosphorylation and NF-κB activation. As to conditions: ref [19],[20]; cited from earlier work.
Description: as §1

Experiment [5] concerns CpG ODN-induced cytokine release. As to conditions: ref [19],[20]; cited from earlier work. From the text:
CpG ODN-induced diseases, such as sepsis and some autoimmune disorders, are triggered by uncontrolled release of proinflammatory cytokines, e.g., TNF-α and IL-6 [18]. […] Herein, we firstly evaluated the inhibitory effect of SP on CpG ODN-induced cytokine release in the cellular tests. Tw ... || NF-κB is one of the most important inflammatory switches that comprise a series of transcription factors that regulate the expressions of various proinflammatory cytokines (IL-1, IL-6, IL-8 and TNF-α). NF-κB activation is depended on the degradation and phosphorylation of IκBα [12].

These results are taken from publication PMC4783973, “Synthetic Human TLR9-LRR11 Peptide Attenuates TLR9 Signaling by Binding to and thus Decreasing Internalization of CpG Oligodeoxynucleotides” (International Journal of Molecular Sciences, 2016).

`COc1ccc(/C=C/c2cc(O)cc(O)c2)cc1` [desoxyrhapontigenin]: the “effect on IκBα and ERK1/2 phosphorylation” value in the experiment on IκBα and ERK1/2 was “decreasing both of IκBα and ERK1/2 phosphorylation”. In experiment [1], the “effect on LPS-induced cytokine release” value is given as “inhibited LPS-induced cytokine release”.
Take “LQTLDLRDNALTTIHFIPSIPD [URP, unrelated peptide derived from LRR14 of human TLR5, used as negative control]”: the “binding response to ODN2006” value in the experiment on ODN2006 is “no such response”. Besides, in the experiment on NF-κB p65 subunit, the “effect of peptide alone on p65 activation” value is on record as “no effect”. Besides, in the experiment on RAW264.7 cells [2], the “mean fluorescence intensity (MFI) produced by FAM-2006 within the cells” value is given as “no such effect”. The “effect of peptide alone on TNF-α and IL-6 release” value in the experiment with RAW264.7 cells [3] is on record as “no influence on cytokines release”.
Turning to kukoamine B, the “effect on IκBα phosphorylation and NF-κB activation” value in experiment [4] is “inhibitors of IκBα phosphorylation and NF-κB activation”. Moreover, in experiment [5], the “effect on CpG ODN-induced cytokine release” value is “inhibitors of CpG ODN-induced cytokine release” and the “effect on proinflammatory cytokines” value is reported as “inhibited proinflammatory cytokines”.
